Laboratory results published in patent publication US20240043473A1, “NOOTROPIC PEPTIDES FOR TREATING LYSOSOMAL STORAGE DISEASES” (Phoenix Nest Inc., priority 2021, published 2024).
“Also recorded” adds a separate entry of the source. No end group written: not given here.

Tests used:
[1] = system: hippocampus CA1 pyramidal cells in hippocampal slices from Hgsnat^Geo and Hgsnat^P311L mice; experiment: Evoked synaptic currents (AMPA EPSCs, NMDA EPSCs, paired pulse) by stimulating Schaffer collaterals in hippocampal slices; type: cell-based, mouse
Method: Model and Developmental time points: Hippocampal slices from Hgsnat^Geo and Hgsnat^P311L mice; P14-20.
Method: Synaptic currents (composite glutamatergic EPSCs, AMPA EPSCs and NMDA EPSCs) were evoked by stimulating Schaffer collaterals and recordings were conducted from the hippocampus CA1 pyramidal cells in hippocampal slices from Hgsnat^Geo and Hgsnat^P311L mice. Paired pulse stimulation protocol with increasing stimulus intervals was used to identify the locus of deficit.
Acute hippocampal slices were prepared as follows. Briefly, animals were anaesthetized deeply with isoflurane and decapitated. The brain was dissected carefully and transferred rapidly into an ice-cold (0-4° C.) solution containing the following (in mM): 250 sucrose, 2 KCl, 1.25 NaH2PO4, 26 NaHCO3, 7 MgSO4, 0.5 CaCl2 and 10 glucose, pH 7.4. The solution was oxygenated continuously with 95% O2 and 5% CO2, 330-340 mOsm/L. Transverse hippocampal slices (thickness, 300 μm) were cut using a vibratome (VT1000S; Leica Microsystems), transferred to a bath at room temperature (23° C.) with standard ACSF at pH 7.4 containing the following (in mM): 126 NaCl, 3 KCl, 1 NaH2PO^4, 25 NaHCO3, 2 MgSO4, 2 CaCl2), 10 glucose, continuously saturated with 95% 02 and 5% CO2 and allowed to recover for 1 h. During the experiments, slices were transferred to the recording chamber at physiological temperature (30-33° C.) continuously perfused with standard ACSF, as described above, at 2 ml/min. Pyramidal CA1 neurons from the hippocampus were identified visually using a 40× water immersion objective. Whole-cell patch-clamp recordings were obtained from single cells in voltage- or current-clamp mode and only 1 cell per slice was recorded to enable post-hoc identification and immunohistochemical processing. Recording pipettes (4-6 MΩ) were filled with a K-gluconate based solution for voltage-clamp recordings (in mM): 130 K-gluconate, 10 KCl, 5 diNa-phosphocreatine. 10 HEPES, 2.5 MgCl2, 0.5CaCl2,1 EGTA, 3 ATP-Tris, 0.4 GTP-Li, 0.3% biocytin, pH 7.2-7.4, 280-290 mOsm/L.
We further studied evoked glutamatergic EPSCs in CA1 pyramidal neurons at P14-20 by stimulating Schaffer Collateral afferents. […] The effect is aggravated at higher IPI, as both the readily releasable and reserve pools of synaptic vesicles get progressively emptied.

[2] = system: Hgsnat-Geo and Hgsnat^P304L MPS IIIC mice; experiment: Novel Object Recognition test; type: in vivo, mouse
Method: Method: Novel object recognition test that studies working memory of mice by measuring their ability to discriminate a familiar from a novel object. AVP6 was administered intranasally at a daily dose 50 μg/kg (5 μl/nostril) for 10 consecutive days before the experimental day.
Novel object recognition test was used for assessing short-term recognition memory. Mice were placed individually in a 44×33×20 cm (length×width×height) testing chamber with white Plexiglas walls for 10 min habituation period and returned to their home cage. The next day, mice were placed in the testing chamber for 10 min with two identical objects (red plastic towers, 3×1.5×4.5 cm), returned to the home cages, and 1 hour later, placed back into the testing chamber in the presence of one of the original objects and one novel object (a blue plastic base, 4.5×4.5×2 cm) for 10 min. After each mouse, the test arena as well as the plastic objects were cleaned with 70% ethanol to avoid olfactory cue bias. The discrimination index (DI) was calculated as the difference of the exploration time between the novel and old object divided by total exploration time.
Starting from 3 weeks of age, WT C57B16 and homozygous Hgsnat^P304L male and female mice were randomly divided in treatment and control groups (6-13 mice/sex/genotype/treatment; see Table I). The control group was daily administered with saline (5 μL to each nostril), while for the treatment group, saline was supplemented with 125 µg of AVP6/mL, which would result in a dose of approximately 50 μg/kg BW/day. The peptide formulation was prepared once, aliquoted and kept frozen at −80° C. until use. At 4 months, all mice were studied by EPM, OF, YM and NOR behavioral tests. Administration of the drug or saline was continued through the days on which the assays were conducted. Then approximately at 5 months 4-5 mice in each group were sacrificed. Their blood plasma was collected, and their tissues were either snap-frozen or fixed and cryopreserved to analyze CNS pathology as described above. For the remaining mice, treatment was continued and their behaviour was studied again at the age of 6 months using OF. NOR and YM tests. Starting from the age of 8 months, Hgsnat^P304L treated and untreated mice were daily studied for the signs of urinary retention. When such signs were detected, the mice were studied by ERG and sacrificed within 1-2 days. […]
The ability of the peptide to improve the memory deficits was tested in the 4-months-old Hgsnat-Geo mice using the Novel Object Recognition (NOR) test that studies working memory of mice by measuring their ability to discriminate a familiar object a novel one. […] Immediately after the test, mice were sacrificed and the levels of mature BDNF protein were measured in their hippocampi by immunoblot.

[3] = 10 μM bath application, P14-20, Hgsnat^P311L (P304L) slices

Substance: AVP6: N-terminally acetylated Semax, a nootropic peptide having the amino acid sequence of MEHFPGP (SEQ ID NO:1) (Ac-MEHFPGP)
- evoked AMPA current deficits [1, 3]: partially recovered deficits in AMPA currents; also recorded: not in AVP6-treated brain slices
- evoked NMDA current deficits [1, 3]: not in AVP6-treated brain slices
- paired pulse (PPF/PPR) deficits at lower inter-pulse intervals ([1]; 10 μM, IPI 100-200 ms Hgsnat^Geo, 100-300 ms Hgsnat^P311L): significantly recovered PPF deficits; also recorded: partially rescued deficits in the paired pulse stimulation; also recorded: is restored by treatment with AVP6
- paired pulse (PPF) deficits at higher inter-pulse intervals ([1]; 10 μM, IPI 400 and 500 ms): not at higher (400 and 500 ms) IPI
- recording lost (suggesting neurotoxicity) ([1]; 50 μM): 5 of 11
- PPF deficits at 100, 200, 300 and 400 ms IPI ([1]; 50 μM, Hgsnat^P304L slices): PPF deficits were rescued
- short-term memory deficit, Novel Object Recognition ([2]; chronic 50 μg/kg BW/day, Hgsnat^P304L mice at 6 months): partially rescues deficits in spatial and short-term memory
- short-term memory deficit (discrimination and recognition indexes), Novel Object Recognition ([2]; chronic daily intranasal 50 μg/kg BW from 3 weeks, Hgsnat^P304L mice at 4 months): rescues deficits in spatial and short-term memory; also recorded: show the rescue of all above deficits
- working (short-term) memory deficit: discrimination index and recognition index, Novel Object Recognition ([2]; intranasal 50 μg/kg daily for 10 consecutive days, 4-month-old Hgsnat-Geo mice): significantly recovered memory deficits; also recorded: rescues working memory deficits; also recorded: This deficit is rescued
- discrimination index and recognition index in WT mice, Novel Object Recognition ([2]; intranasal 50 μg/kg daily for 10 days, WT mice vs saline): trend for an increase
